# From PubChem BioAssay (NCI)
#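 1) Cells in 96-well plates. 2) Compound, 48 h, 5 concentrations. 3) Linear interpolation between surrounding doses. 4) Unreached endpoint = highest concentration. The concentration for full growth arrest is given as TGI.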
# Assays:
# Test in all cases: DTP human tumour cell line panel, 48 h
# EKVX NSCLC = test system: EKVX NSCLC
# UACC-257 melanoma = test system: UACC-257 melanoma
# MDA-N = test system: MDA-N
# SNB-19 CNS = test system: SNB-19 CNS
# MALME-3M melanoma = test system: MALME-3M melanoma
# HCT-15 colon = test system: HCT-15 colon
# LOX IMVI melanoma = test system: LOX IMVI melanoma
# NCI-H23 lung = test system: NCI-H23 lung
# M14 melanoma = test system: M14 melanoma
# PC-3 prostate = test system: PC-3 prostate
# A498 renal = test system: A498 renal
# CCRF-CEM leukemia = test system: CCRF-CEM leukemia
SMILES,TGI (EKVX NSCLC) [µM],TGI (UACC-257 melanoma) [µM],TGI (MDA-N) [µM],TGI (SNB-19 CNS) [µM],TGI (MALME-3M melanoma) [µM],TGI (HCT-15 colon) [µM],TGI (LOX IMVI melanoma) [µM],TGI (NCI-H23 lung) [µM],TGI (M14 melanoma) [µM],TGI (PC-3 prostate) [µM],TGI (A498 renal) [µM],TGI (CCRF-CEM leukemia) [µM]
O=C(c1ccccc1)N(C(=O)c1ccccc1)c1nc(SCc2ccccc2)ns1,68.7,60.5,90.5,> 100,74.8,65.3,60.4,57.3,86.1,71,73.9,65.3
COC(=O)C(CCSC)NC(=O)CNC(=O)CSc1nnc(COc2ccc(Cl)cc2)n1-c1ccccc1 (stereo not given),–,32.2,32.7,> 100,32.7,37.8,23.8,30.2,33.6,30.2,95.7,26.1
CSC(=S)Nc1cccc(C)n1,> 100,> 100,> 100,> 100,> 100,> 100,> 100,> 100,> 100,> 100,> 100,> 100
CC(C)=CCN1CC(C)C(=O)Nc2ccccc21 (stereo not given),> 100,> 100,> 100,> 100,> 100,> 100,> 100,> 100,> 100,> 100,> 100,> 100
c1cc2nnc1SCCCSc1ccc(nn1)SCCCS2,> 100,> 71.6,> 100,> 93.2,> 100,> 100,> 48.4,> 100,> 57.6,> 100,> 100,> 100
O=C1C(Cl)C2(CC(/C=C/c3ccccc3)=NN2c2cccc(S(=O)(=O)O)c2)N1c1nc2ccccc2s1 (stereo not given),41,54.4,46,> 100,33.3,38.8,13,28.1,36,34.4,38.8,32.4
CC1(C)CC[C@]2(C)CC[C@]3(C)C(=CC[C@@H]4[C@@]5(C)CCC(=O)C(C)(C)[C@@H]5[C@H](O)C[C@]43C)[C@@H]2C1,32.4,32.3,29.7,30.6,31.6,39.3,32.8,35.3,40.7,30.9,31,> 100
O=c1c2cc(S(=O)(=O)O)ccc2nc(COc2ccc(Oc3ccc(Cl)cc3Cl)cc2)n1-c1ccc(Oc2ccc(Cl)cc2)cc1Cl,44.5,57.4,59.2,67.7,85.2,43.8,30.2,43,39.9,> 100,57,> 100
CC(C)(C)C1=CC(C)(n2[nH]c(=O)n(-c3ccccc3)c2=O)C=C(C(C)(C)C)C1=O,–,> 100,> 100,> 100,> 100,> 100,> 100,> 100,–,> 100,> 100,–
NC1CC(=O)c2c1sc(Cl)c2Cl (stereo not given),> 100,> 100,> 100,> 100,> 100,> 100,–,–,> 100,> 100,> 100,> 100
C=C1CC(c2ccc(OCCCN3C(=O)c4ccccc4C3=O)cc2)OC1=O (stereo not given),18.4,7.55,10.7,25.5,7.27,6.84,3.77,9.34,9.09,10.9,3.56,4.56
COC(=O)c1ccc(S)c(S(=O)(=O)Nc2n[nH]c(N)n2)c1,> 100,> 100,> 100,> 100,> 100,> 100,> 100,> 100,> 100,> 100,> 100,> 100
COc1cc(O)c2c(=O)c(O)c(-c3ccc(O)c(OC)c3)oc2c1,> 100,> 100,> 100,> 100,> 100,> 100,> 100,> 100,> 100,> 100,> 100,> 21.9
CC(=O)Oc1ccc(/C=C/C(=O)OCCCOC(=O)/C=C/c2ccc(OC(C)=O)c(OC(C)=O)c2)cc1OC(C)=O,> 100,> 100,> 100,> 100,> 100,> 100,> 100,> 100,> 100,> 100,> 100,–
Cc1cn(CCCCC2=NCCCN2)c(=O)[nH]c1=O,> 42,> 33.9,> 100,> 66.2,–,> 47.2,> 32.6,> 44.3,> 32.4,> 35,> 49.4,> 23
O=[N+]([O-])/C(C(Cl)=C(Cl)Cl)=C(/Cl)SCc1ccccc1,40.1,7.03,4.23,43.2,6.68,19.2,23.4,23,3.58,31.4,40.8,0.448
COC(=O)/C=C(\CC(=O)OC)n1nnnc1[C@@H]1C[C@H](COC(c2ccccc2)(c2ccccc2)c2ccccc2)[C@H]2OC(C)(C)O[C@H]21,> 100,> 100,> 100,> 100,> 100,–,> 100,–,> 100,> 100,> 100,> 100
Cc1cc(N(CCC#N)CCC#N)ccc1/C(N=Nc1cccc(Cl)c1)=N/NC(=O)c1cc(Cl)ccc1O,39.6,31.2,> 100,> 100,28.1,24.4,42.2,31.1,49.6,46.2,53.1,37.2
CCOC(=O)C(C(=O)OCC)=C1NC2(c3ccccc3Nc3ccccc32)C(C#N)S1 (stereo not given),47.2,36,36.3,35.1,29,19.6,26.5,16,19.8,16.8,29.2,> 100

SMILES,TGI (EKVX NSCLC) [µM],TGI (UACC-257 melanoma) [µM],TGI (MDA-N) [µM],TGI (SNB-19 CNS) [µM],TGI (MALME-3M melanoma) [µM],TGI (HCT-15 colon) [µM],TGI (LOX IMVI melanoma) [µM],TGI (NCI-H23 lung) [µM],TGI (M14 melanoma) [µM],TGI (PC-3 prostate) [µM],TGI (A498 renal) [µM],TGI (CCRF-CEM leukemia) [µM]
CCOP1(=O)CC(C)=C(Cl)C(O)C1 (stereo not given),> 100,> 100,> 100,> 100,> 100,> 100,> 100,> 100,> 100,> 100,> 100,> 100
CC1(C)CNCC(C)(OCc2ccccc2)C(=O)NC(C)(C)CNCC(C)(OCc2ccccc2)C(=O)N1 (stereo not given),> 10,> 10,> 10,> 10,> 10,> 10,> 10,> 10,> 10,> 10,> 10,> 10
COc1ccc(OC)c(CNc2ccc(C(=O)O)cc2)c1,> 100,> 100,> 100,> 100,> 100,> 100,> 100,> 100,> 100,> 100,> 100,> 100
CCOC(=O)/C=C/CCO[Si](C)(C)C(C)(C)C,> 100,> 100,> 100,> 100,> 100,> 100,> 100,> 100,–,> 100,> 100,> 100
C[N+]12C=CC=C1C(N1CCCC1)c1scc(-c3ccccc3)c12 (stereo not given),> 100,–,84.3,> 100,49.8,–,> 100,–,> 100,89.9,> 100,> 100
c1ccc2oc(-c3ccc(-c4nc5ccccc5o4)c4c3CC4)nc2c1,> 100,> 100,> 100,> 100,> 100,> 100,> 100,> 100,> 100,> 100,> 100,> 100
O=c1[nH]nc(Cc2ccccc2)n1C1CCCC1,> 100,> 100,> 100,> 100,> 100,> 100,> 100,> 100,> 100,> 100,> 100,> 100
O=C1CSC2(CC(/C=C/c3cccc([N+](=O)[O-])c3)=NN2c2cccc(S(=O)(=O)O)c2)N1c1nc2ccccc2s1 (stereo not given),> 100,> 100,59.1,43.6,> 100,44.5,29.1,43.4,92.6,51,52.5,48.3
COc1cc2c(c(O)c1OC)C(=O)[C@@H]1CCC(=O)N1C2,> 100,> 100,> 100,> 100,> 100,> 100,> 100,> 100,> 100,> 100,> 100,> 100
CC(=O)OCC(=O)O[C@@H]1[C@H]2[C@@H](OC(=O)c3ccccc3)[C@@H](C)C[C@]2(O)[C@H](OC(C)=O)[C@@]2(C)C(OC(C)=O)[C@]1(OC(C)=O)C[C@H]1C(=O)C(C)(C)C[C@@H]12 (stereo not given in full),> 50,> 50,> 50,> 50,> 50,> 50,> 50,> 50,> 50,> 50,> 50,> 50
COc1ccc(Oc2cccc(C3C4C(=O)N(c5ccc(C)c(Cl)c5)C(=O)C4ON3C(C(N)=O)c3ccccc3)c2)cc1 (stereo not given),26.6,29.3,23.6,> 50,> 50,25.9,> 50,20.2,> 50,> 50,> 50,> 50
O=C(NC1CCN(Cc2ccccc2)CC1)c1ccc(I)cc1,> 100,> 100,> 100,> 100,–,> 100,> 100,> 100,> 100,> 100,> 100,> 100
Oc1ccc2cc(Br)ccc2c1-c1c(O)ccc2ccc(Br)cc12,–,33.9,24.6,29.3,26.6,29,–,29.1,33.1,25.3,32.1,28.3
CC1(C)OC(=S)N(c2ccccc2)C12C=Cc1ccccc1O2 (stereo not given),> 100,> 100,> 100,> 100,–,> 100,> 100,> 100,> 100,> 100,> 100,> 100
O=C(/C=C/c1ccccc1)Oc1ccc(C(=O)/C=C/c2ccc(Cl)cc2)cc1,> 100,> 100,> 100,> 100,> 100,–,–,–,> 100,> 100,> 100,> 100
CCOC(=O)N1N=C(/C(C)=N/OC)C(C)S1=O (stereo not given),> 100,> 100,> 100,> 100,> 100,> 100,–,> 100,> 100,> 100,> 100,> 100
COc1ccc(/C=N/n2c(C)n[nH]c2=O)c(OC)c1,> 100,> 100,> 100,> 100,> 100,> 100,–,> 100,> 100,> 100,> 100,> 100
C[C@]12C[C@@H](OC(=O)[C@]1(C)O)[C@@H]([C@]1(O)CC[C@H]3[C@@H]4C[C@H]5O[C@]56C[C@H]5O[C@H]5C(=O)[C@]6(C)[C@H]4CC[C@@]31C)C2,> 50,> 50,> 50,> 50,> 5,> 50,–,> 50,> 50,> 50,> 50,> 50
